In article PMC11230938 (2024):

Tests used:
[1] = tested on: OTC34 (DNA, aptamer) GACGACGCAGTCTGATTTCAGCCATAGTTTTACTGCGTCGTC; assay: intrinsic fluorescence titration of OTC; settings: 50 mM NaCl, 2 mM MgCl2; 10 mM MES pH 6.0; 100 nM OTC; 1 min equilibration
[2] = tested on: OTC11 (DNA, aptamer) GACGACGCAGACATCTTGTGTGTCATAGCGCGCTACGTCGTC; assay: intrinsic fluorescence titration of OTC; settings: 50 mM NaCl, 2 mM MgCl2; 10 mM MES pH 6.0; 100 nM OTC; 1 min equilibration
[3] = tested on: OTC26 (DNA, aptamer) GACGACATAGCTTGCTACCACTCGTCTCCGTAGTGGCAGTCGTC; assay: intrinsic fluorescence titration of OTC; settings: 50 mM NaCl, 2 mM MgCl2; 10 mM MES pH 6.0; 100 nM OTC; 1 min equilibration
[4] = tested on: OTC22 (DNA, aptamer) GACGACAAAGCGTCTTACGTGCATACTTTTGTTGTCGTC; assay: intrinsic fluorescence titration of OTC; settings: 50 mM NaCl, 2 mM MgCl2; 10 mM MES pH 6.0; 100 nM OTC; 1 min equilibration
[5] = tested on: OTC2 (DNA, aptamer) GACGACGCAATGTCCTTCGCAGGATCCGTTTACGGTGTCGTC; assay: ITC; settings: 50 mM NaCl, 2 mM MgCl2; 10 mM MES pH 6.0, 25 °C; 9 μM aptamer, 150 μM OTC
[6] = tested on: OTC23 (DNA, aptamer) GACGACGTGCTATTGCCTCAGTCATTCTCTGAGTCGTCGTC; assay: intrinsic fluorescence titration of OTC; settings: 50 mM NaCl, 2 mM MgCl2; 10 mM MES pH 6.0; 100 nM OTC; 1 min equilibration
[7] = tested on: OTC8 (DNA, aptamer) GACGACGGGCAAGATCTATTCTTCACGTTCACCTTTGTCGTC; assay: intrinsic fluorescence titration of OTC; settings: 50 mM NaCl, 2 mM MgCl2; 10 mM MES pH 6.0; 100 nM OTC; 1 min equilibration
[8] = tested on: OTC43 (DNA, aptamer) GACGACTGGACCCTTCTGTGGTAGATTCTATCTAATGTCGTC; assay: intrinsic fluorescence titration of OTC; settings: 50 mM NaCl, 2 mM MgCl2; 10 mM MES pH 6.0; 100 nM OTC; 1 min equilibration
[9] = tested on: OTC2 (DNA, aptamer) GACGACGCAATGTCCTTCGCAGGATCCGTTTACGGTGTCGTC; assay: intrinsic fluorescence titration of OTC; settings: 50 mM NaCl, 2 mM MgCl2; 10 mM MES pH 6.0; 100 nM OTC; 12 min equilibration per addition (0.57 μM after 1 min)
[10] = tested on: OTC43 (DNA, aptamer) GACGACTGGACCCTTCTGTGGTAGATTCTATCTAATGTCGTC; assay: ITC; settings: 50 mM NaCl, 2 mM MgCl2; 10 mM MES pH 6.0, 25 °C; 9 μM aptamer, 150 μM OTC
[11] = tested on: OTC22 (DNA, aptamer) GACGACAAAGCGTCTTACGTGCATACTTTTGTTGTCGTC; assay: ITC; settings: 50 mM NaCl, 2 mM MgCl2; 10 mM MES pH 6.0, 25 °C; 9 μM aptamer, 150 μM OTC

Kd [1]: 0.53 µM
Kd [2]: 0.32 µM
Kd [3]: 0.59 µM
Kd [4]: 0.29 µM
Kd [5]: 0.062 ± 0.02 µM
Kd [6]: 0.36 µM
Kd [7]: 0.2 µM
Kd [8]: 0.69 µM
Kd [9]: 0.081 µM
Kd [10]: 1.6 ± 0.57 µM
Kd [11]: 0.49 ± 0.11 µM
Structure (SMILES): CN(C)[C@@H]1C(=O)C(C(N)=O)=C(O)[C@@]2(O)C(=O)C3=C(O)c4c(O)cccc4[C@@](C)(O)[C@H]3[C@H](O)[C@@H]12
